Legend:
[1] = tested on: CD34+ cells isolated from donor non-mobilized peripheral blood (CD133+ and CD90+ cells); assay: Relative expansive effect of SF1670 derivatives, fold change days 2 to 7, non-mobilized peripheral blood CD34+ cells (Example 21); format: cell-based, human; conditions: fold change days 2 to 7 normalized to basic and +SF (500 nM SF1670) controls
Procedure: CD34+ cells were isolated from donor peripheral blood as described in Example 20. Isolated CD34+ cells were incubated in an in vitro culture media of Alpha MEM without phenol red, 10% (v/v) heat inactivated fetal bovine serum (FBS). When testing the substituted derivatives of 9,10-dihydrophenathrene and phenanthrene (+Derivative conditions), two internal controls were used: a positive control (+SF conditions) and a baseline control (i.e, basic conditions (“cytokines only”)). The media components and concentrations used for the compounds tested are described in Table 6. The culture also included an antibiotic solution that includes penicillin, streptomycin, and amphotericin B to avoid contamination. Controls were included because the amount of expansion in samples obtained varies from individual to individual.
(§1) Cultures were incubated at 3% oxygen (controlled by nitrogen) and 5% CO2.
Small molecule components were added separately and fresh each time the media needs to be refreshed. Cytokines can be stored together. Media renewal should occur at least every few days.
On the days indicated one-half of the volume of the cell culture was removed for data analysis (flow cytometry using a BD FACS ARIA II). The culture volume was replenished with fresh media according to the conditions tested. The data reported accounts for the dilution factor introduced in this procedure.
Separate experiments were performed for each compound tested (Compound 1.001-1.012).
Table 7, below, summarizes the relative expansive effect of Compound 1.001 to 1.012 (sample compounds) at the indicated concentration. The data in Table 7 is reported as the relative expansive effect. The relative expansive effect is a normalized value of the fold changes shown in each of the figures. It is calculated as shown below: […]

[2] = tested on: CD34+ cells isolated from donor non-mobilized peripheral blood (CD133+ and CD90+ cells); assay: Relative expansive effect (relative cell number) of SF1670 derivatives, non-mobilized peripheral blood CD34+ cells, cytokines with IL-6 (Example 22); format: cell-based, human
Procedure: CD34+ cells were isolated from donor peripheral blood as described in Example 20. Isolated CD34+ cells were incubated in an in vitro culture media of Alpha MEM without phenol red, 10% (v/v) heat inactivated fetal bovine serum (FBS). When testing the substituted derivatives of 9,10-dihydrophenathrene (+Derivative conditions), two internal controls were used: a positive control (+SF conditions) and a baseline control (i.e, basic conditions (“cytokines only”)). The media components and concentrations used for the compounds tested are described in Table 8. The culture also included an antibiotic solution that includes penicillin, streptomycin, and amphotericin B to avoid contamination. Controls were included because the amount of expansion in samples obtained varies from individual to individual.
as §1
After the indicated number of days one-half of the volume of the cell culture was removed for data analysis (flow cytometry using a BD FACS ARIA II). The culture volume was replenished with fresh media according to the conditions tested.
Separate experiments were performed for each compound tested (Compound 1.014-1.016).
Table 9, below, summarizes the relative expansive effect of Compound 1.014 to 1.016 (sample compounds) at the indicated concentration. The data in Table 9 is reported as the relative cell number. The relative cell number is the normalized value of cell counts after the indicated number of days in culture. It is calculated as shown below: […]

[3] = 7 days in culture, 1 μM sample compound
[4] = 7 days in culture, 2 μM sample compound
[5] = 5 days in culture, 0.25 μM sample compound

SMILES: CC(C)(C)NC(=O)c1ccc2c(c1)C(=O)C(=O)c1ccccc1-2 [Compound 1.001, N-(tert-butyl)-9,10-dioxo-9,10-dihydrophenanthrene-2-carboxamide]
- CD90 effect (relative expansive effect of CD90+ cells) ([1]; 0.5 μM sample compound): ++ (0.2 ≤ x < 0.55)
- CD133 effect (relative expansive effect of CD133+ cells) ([1]; 0.5 μM sample compound): + (x < 0.2)

SMILES: CC(C)(C)C(=O)CNc1ccc2c(c1)C(=O)C(=O)c1ccccc1-2 [Compound 1.002, 2-((3,3-dimethyl-2-oxobutyl)amino)phenanthrene-9,10-dione]
- CD90 effect (relative expansive effect of CD90+ cells) ([1]; 1 μM sample compound): ++ (0.2 ≤ x < 0.55)
- CD133 effect (relative expansive effect of CD133+ cells) ([1]; 1 μM sample compound): + (x < 0.2)

SMILES: Nc1ccc2c(c1)C(=O)C(=O)c1cc(NC(=O)CC(=O)O)ccc1-2 [Compound 1.003, 3-((7-amino-9,10-dioxo-9,10-dihydrophenanthren-2-yl)amino)-3-oxopropanoic acid]
- CD90 effect (relative expansive effect of CD90+ cells) ([1]; 0.125 μM sample compound): ++ (0.2 ≤ x < 0.55)
- CD133 effect (relative expansive effect of CD133+ cells) ([1]; 0.125 μM sample compound): + (x < 0.2)

SMILES: CC(C)(C)CC(=O)Nc1ccc2c(c1)C(=O)C(=O)c1ccccc1-2 [Compound 1.004, N-(9,10-dioxo-9,10-dihydrophenanthren-2-yl)-3,3-dimethylbutanamide]
- CD90 effect (relative expansive effect of CD90+ cells) ([1]; 0.125 μM sample compound): ++ (0.2 ≤ x < 0.55)
- CD133 effect (relative expansive effect of CD133+ cells) ([1]; 0.125 μM sample compound): + (x < 0.2)

SMILES: CCCCCCCCCC(=O)Nc1ccc2c(c1)C(=O)C(=O)c1ccccc1-2 [Compound 1.005, N-(9,10-dioxo-9,10-dihydrophenanthren-2-yl)decanamide]
- CD90 effect (relative expansive effect of CD90+ cells) ([1]; 2 μM sample compound): ++ (0.2 ≤ x < 0.55)
- CD133 effect (relative expansive effect of CD133+ cells) ([1]; 2 μM sample compound): + (x < 0.2)

SMILES: CC(=O)Nc1ccc2c(c1)C(=O)C(=O)c1ccccc1-2 [Compound 1.006, N-(9,10-dioxo-9,10-dihydrophenanthren-2-yl)acetamide]
- CD90 effect (relative expansive effect of CD90+ cells) ([1]; 0.5 μM sample compound): ++ (0.2 ≤ x < 0.55)
- CD133 effect (relative expansive effect of CD133+ cells) ([1]; 0.5 μM sample compound): + (x < 0.2)

SMILES: CC(C)(C)C(=O)Nc1ccc2c(c1)C(=O)C(=O)c1cc(N)ccc1-2 [Compound 1.007, N-(7-amino-9,10-dioxo-9,10-dihydrophenanthren-2-yl)pivalamide]
- CD90 effect (relative expansive effect of CD90+ cells) ([1]; 1 μM sample compound): ++ (0.2 ≤ x < 0.55)
- CD133 effect (relative expansive effect of CD133+ cells) ([1]; 1 μM sample compound): ++ (0.2 ≤ x < 0.55)

SMILES: CCC(C)(C)C(=O)Nc1ccc2c(c1)C(=O)C(=O)c1ccccc1-2 [Compound 1.008, N-(9,10-dioxo-9,10-dihydrophenanthren-2-yl)-2,2-dimethylbutanamide]
- CD90 effect (relative expansive effect of CD90+ cells) ([1]; 1 μM sample compound): ++ (0.2 ≤ x < 0.55)
- CD133 effect (relative expansive effect of CD133+ cells) ([1]; 1 μM sample compound): ++ (0.2 ≤ x < 0.55)

SMILES: O=C1C(=O)c2cc(NC(=O)C(Cl)(Cl)Cl)ccc2-c2ccccc21 [Compound 1.009, 2,2,2-trichloro-N-(9,10-dioxo-9,10-dihydrophenanthren-2-yl)acetamide]
- CD90 effect (relative expansive effect of CD90+ cells) ([1]; 0.5 μM sample compound): +++ (0.55 ≤ x < 0.9)
- CD133 effect (relative expansive effect of CD133+ cells) ([1]; 0.5 μM sample compound): ++ (0.2 ≤ x < 0.55)

SMILES: CCCC(C)(C)C(=O)Nc1ccc2c(c1)C(=O)C(=O)c1ccccc1-2 [Compound 1.010, N-(9,10-dioxo-9,10-dihydrophenanthren-2-yl)-2,2-dimethylpentanamide]
- CD90 effect (relative expansive effect of CD90+ cells) ([1]; 0.125 μM sample compound): +++ (0.55 ≤ x < 0.9)
- CD133 effect (relative expansive effect of CD133+ cells) ([1]; 0.125 μM sample compound): + (x < 0.2)

SMILES: O=C1C(=O)c2ccc(NC(=O)C(Cl)(Cl)Cl)cc2-c2ccccc21 [Compound 1.011, 2,2,2-trichloro-N-(9,10-dioxo-9,10-dihydrophenanthren-3-yl)acetamide]
- CD90 effect (relative expansive effect of CD90+ cells) ([1]; 0.25 μM sample compound): ++++ (0.9 ≤ x < 1.25)
- CD133 effect (relative expansive effect of CD133+ cells) ([1]; 0.25 μM sample compound): ++ (0.2 ≤ x < 0.55)

SMILES: CC(=O)Oc1c(OC(C)=O)c2cc(NC(=O)C(C)(C)C)ccc2c2ccccc12 [Compound 1.012, 2-pivalamidophenanthrene-9,10-diyl Diacetate]
- CD90 effect (relative expansive effect of CD90+ cells) ([1]; 0.5 μM sample compound): +++++ (1.25 ≤ x)
- CD133 effect (relative expansive effect of CD133+ cells) ([1]; 0.5 μM sample compound): ++++ (0.9 ≤ x < 1.25)

SMILES: COCCOc1c(O)c2cc(NC(=O)C(C)(C)C)ccc2c2ccccc12 [Compound 1.014, N-(10-hydroxy-9-(2-methoxyethoxy)phenanthren-2-yl)pivalamide]
- CD90 effect (relative expansive effect, relative cell number) [2, 3]: ++ (0.2 ≤ x < 0.55)
- CD133 effect (relative expansive effect, relative cell number) [2, 3]: ++ (0.2 ≤ x < 0.55)

SMILES: O=C(COCc1ccccc1)Nc1ccc2c(c1)C(=O)C(=O)c1ccccc1-2 [Compound 1.015, 2-(benzyloxy)-N-(9,10-dioxo-9,10-dihydrophenanthren-2-yl)acetamide]
- CD90 effect (relative expansive effect, relative cell number) [2, 4]: +++++ (1.25 ≤ x)
- CD133 effect (relative expansive effect, relative cell number) [2, 4]: +++ (0.55 ≤ x < 0.9)

SMILES: CC(C)(C)C(=O)Nc1ccc2c(c1)C(=O)C(=NO)c1ccccc1-2 [Compound 1.016, N-(9-(hydroxyimino)-10-oxo-9,10-dihydrophenanthren-2-yl)pivalamide]
- CD90 effect (relative expansive effect, relative cell number) [2, 5]: ++ (0.2 ≤ x < 0.55)
- CD133 effect (relative expansive effect, relative cell number) [2, 5]: ++ (0.2 ≤ x < 0.55)
